According to US5071859A, “N-substituted azaheterocyclic carboxylic acids and pharmaceutical uses” (priority 1988, dated 1991):
Counter-ions that a name gives are not always drawn.

Test system: GABA uptake
Experiment: not given
Conditions: oral; cited from earlier work
In the case of O=C(O)C1CCCN(CCC=C(c2ccccc2)c2ccccc2)C1 (stereo not shown) [SK&F 89976A, N-(4,4-diphenyl-3-butenyl)nipecotic acid], the “orally active inhibitors of GABA uptake” value is listed as “orally active inhibitors of GABA uptake”.
In the case of O=C(O)C1=CCCN(CCC=C(c2ccccc2)c2ccccc2)C1 [SK&F 100330A, N-(4,4-diphenyl-3-butenyl)guvacine], the “orally active inhibitors of GABA uptake” value is listed as “orally active inhibitors of GABA uptake”.
For O=C(O)C1CCCN(CCC=C(c2ccccc2)c2cccs2)C1 (stereo not shown) [SK&F 100604J, N-(4-phenyl-4-(2-thienyl)-3-butenyl)nipecotic acid], the “orally active inhibitors of GABA uptake” value is given as “orally active inhibitors of GABA uptake”.
For O=C(O)CC1CCN(CCC=C(c2ccccc2)c2ccccc2)C1 (stereo not drawn) [SK&F 100561, N-(4,4-diphenyl-3-butenyl)homo-β-proline], the “orally active inhibitors of GABA uptake” value is listed as “orally active inhibitors of GABA uptake”.

Test system: GABA uptake from the synaptic cleft into presynaptic nerve terminals and glial cells
Experiment: not given
Conditions: cited from earlier work
For O=C(O)C1CCCNC1 (stereo not shown) [nipecotic acid, piperidine-3-carboxylic acid], the “inhibitor of GABA uptake from the synaptic cleft” value is listed as “potent inhibitor of GABA uptake”.

Test system: [^3 H]-GABA uptake
Experiment: in vitro inhibition of [^3 H]-GABA uptake (method of Fjalland)
Type: biochemical, Male Wistar rat (cortical tissue)
Conditions: rat cortical tissue homogenate; 60 min at 30° C.; pH 7.5; ligand 0.2 nM
Protocol: Male Wistar rat cortical tissue was gently homogenized by hand using a glass/PTFE homogenizer in 10 volumes of 0.32 M sucrose. Incubation was performed in a 40 mM tris HCl buffer (pH 7.5 at 30° C.) containing […], […], 4 mM MgSO4, 2.3 mM CaCl2 and 10 mM glucose, for 60 min. at 30° C. Ligand concentration was 0.2 nM.
Compound Cc1ccccc1C(=COCCN1CCC[C@@H](C(=O)O)C1)c1ccccc1Cl [Example 30, (R)-1-[2-[[2-(2-Chlorophenyl)-2-(2-methylphenyl)ethenyl]oxy]ethyl]-3-piperidine carboxylic acid hydrochloride] has an IC50 of 12 nM.
For Cc1ccccc1C(=COCCN1CCC=C(C(=O)O)C1)c1ccccc1C [Example 13, 1-[2-[[2,2-bis(2-Methylphenyl)ethenyl]oxy]ethyl]-1,2,5,6-tetrahydro-3-pyridine carboxylic acid hydrochloride], the IC50 was 26 nM.
O=C(O)[C@@H]1CCCN(CCOC=C(c2ccccc2)c2ccccc2)C1 [Example 2, (R)-1-[2-[[2,2-Diphenylethenyl]oxy]ethyl]-3-piperidine carboxylic acid hydrochloride] gave an IC50 of 104 nM.
Work on Cc1ccsc1C(=COCCN1CCC[C@@H](C(=O)O)C1)c1sccc1C [Example 12, (R)-1-[2-[[2,2-bis(3-Methyl-2-thienyl)ethenyl]oxy]ethyl]-3-piperidine carboxylic acid] yielded an IC50 of 8 nM.
Work on Cc1ccccc1C(=COCCN1CCC[C@@H](C(=O)O)C1)c1ccccc1C [Example 17, (R)-1-[2-[[2,2-bis(2-Methylphenyl)ethenyl]oxy]ethyl]-3-piperidine carboxylic acid hydrochloride] yielded an IC50 of 15 nM.
Compound O=C(O)[C@@H]1CCCN(CCOCC(c2ccccc2)c2ccccc2)C1 [Example 33, (R)-1-[2-[[2,2-Diphenylethyl]oxy]ethyl]-3-piperidine carboxylic acid] has an IC50 of 127 nM.
Compound CCc1ccccc1C(=COCCN1CCC=C(C(=O)O)C1)c1ccccc1CC [Example 23, 1-[2-[[2,2-bis(2-Ethylphenyl)ethenyl]oxy]ethyl]-1,2,5,6-tetrahydro-3-pyridine carboxylic acid hydrochloride] has an IC50 of 47 nM.
For Cc1ccccc1C(=COCCN1CCC[C@@H](C(=O)O)C1)c1ccc(F)cc1C [Example 14, (R)-1-[2-[[2-(4-Fluoro-2-methylphenyl)-2-(2-methylphenyl)ethenyl]oxy]ethyl]-3-piperidine carboxylic acid hydrochloride], the IC50 was 30 nM.
